# Assay results as given in PMC12844998, “Bridging the Knowledge Gap in Harmaline’s Pharmacological Properties: A Focus on Thermodynamics and Kinetics” (Pharmaceutics, 2025).
# “And” between values parts separate entries of the source, which are not always exact repeats. Equal entries are not always repeated. Where two headings read alike, the source gives them in different places.
# Tests used:
# [1] = Equilibrium solubility, shake-flask method; assay type: physicochemical; details: for solubility at 24 h: Hex, organic solvent or mixture, thermodynamic from solid, value given as S2×10^5, read-out: solubility S2∙105
# Experimental: The equilibrium solubility of HML was measured by the shake-flask method over a wide temperature range of 293.15–313.15 K. Briefly, glass vials containing the respective solvent were charged with an excess of the drug. The vials were shaken at a predetermined temperature for 24 h—a duration previously established as sufficient to reach equilibrium between the solid and liquid phases. Following shaking, samples were equilibrated for ~5 h to prevent supersaturation and then centrifuged (10,000 rpm, 10 min; Biofuge pico, Thermo Electron LED GmbH, Osterode am Harz, Germany) at constant temperature. Concentrations were determined spectrophotometrically at 373 nm using a Cary-50 instrument (Varian, Palo Alto, CA, USA; software version 3.00 (339)) based on calibration curves. Data are presented as the mean ± standard deviation (or standard error) of at least three independent replicates. The error bars represent the standard deviation (SD), which ranged from 2% to 4% of the mean.
# [2] = Equilibrium distribution coefficients in organic solvent/pH 7.4 systems, shake-flask method; assay type: physicochemical; details: for logD / logD at 24 h: read-out: log DappOctOH/pH7.4 (logD) (converted); for DappHex/pH7.4 ·10^2: value given as D×10^2
# Experimental: The equilibrium distribution coefficients of HML were determined in the OctOH/pH 7.4 and Hex/pH 7.4 systems by the shake-flask method over a wide temperature range of 293.15–313.15 K. The distribution coefficient in the IPM/pH 7.4 system was obtained at 310.15 K. Before the experiment, the aqueous and organic phases were mutually pre-saturated by vigorous shaking for 24 h, equilibrated, and then carefully separated. The stock HML solutions were prepared in OctOH for the OctOH/pH 7.4 system and in pH 7.4 for both the Hex/pH 7.4 and IPM/pH 7.4 systems. The volumes of the organic and aqueous phases were selected according to the HML solubility in each solvent. The glass vials containing the two-phase system were equilibrated at constant temperature for 24 h. After this, the vials were allowed to stand for not less than 4 h, and the phases were carefully separated. The concentration of HML in each phase was measured using a UV-VIS spectrophotometer (Cary-50 Varian, Palo Alto, CA, USA; Software Version 3.00 (339)). Each experiment was carried out in three or more replicates. The standard deviation ranged from 2% to 4% of the mean. The distribution coefficients were calculated by Equation (1):(1) DappOrg/pH7.4=C2Org/pH7.4⋅V^pH7.4/Org/C2pH7.4/Org⋅V^Org/pH7.4 where DappOrg/pH7.4 is the distribution coefficient calculated using the compound concentrations in molar units, C2Org/pH7.4 and C2pH7.4/Org are the molar concentrations of the drug in the mutually saturated organic and aqueous phases, respectively, V^pH7.4/Org and V^Org/pH7.4 are the volumes of the mutually saturated buffer and organic phases, respectively. The ΔlogD parameters that characterize the drug’s hydrogen-bonding potential and reflect the impact of specific interactions on partition processes were calculated as follows:(2) ΔlogD^Oct/Hex=logDappOct/pH7.4−logDappHex/pH7.4 (3) ΔlogD^IPM/Hex=logDappIPM/pH7.4−logDappHex/pH7.4
# [3] = Permeability in Franz diffusion cell, polydimethylsiloxane-polycarbonate membrane; assay type: in vitro ADME; details: pH 7.4, 310.15 K
# Experimental: Permeability coefficients were measured in a vertical type Franz diffusion cell (PermeGear, Inc., Hellertown, PA, USA) maintained at 37 °C, with an effective diffusion area of 0.785 cm^2. The volumes of the donor (lower) and the acceptor (upper) compartments were 7 mL and 2 mL, respectively. Three artificial membranes were used in the study: Regenerated cellulose (RC): Standard Grade RC Dialysis Membrane with a molecular weight cut-off (MWCO) of 12–14 kDa and a flat width of 45 mm; PermeaPad barrier (PP): A commercially available barrier (PHABIOC, Fritz-Souchon-Str. 27, 32339 Espelkamp, Germany; www.innome.de), originally proposed by di Cagno et al.; Polydimethylsiloxane-polycarbonate membrane (PDS): A “Carbosil” membrane composed of 55% polydimethylsiloxane and 45% polycarbonate (PENTAMED, Moscow, Russia; https://medpolymer.ru/).
# A solution of HML in pH 7.4 (7 mL) was placed into the donor chamber of a Franz cell. The acceptor compartment was filled with pure buffer pH 7.4 (1 mL). Over a period of 5 h, 0.5 mL samples were withdrawn from the acceptor compartment at 30 min intervals and replaced with an equal volume of fresh pH 7.4 buffer. The sample concentrations were determined by UV-Vis spectroscopy (Cary-50, Varian, Palo Alto, CA, USA; Software Version 3.00 (339)) or by HPLC (for experiments involving the polydimethylsiloxane-polycarbonate membrane). The cumulative amount of drug permeated through the membrane was plotted as a function of time. The flux was determined from the slope of the linear portion of each curve. The permeability coefficient was calculated using the following equation:(4) Papp=J/C0 where J is the flux, and C0 is the concentration of HML in the donor solution. A reverse dialysis setup was employed, where the lower chamber served as the donor compartment and was filled with the drug solution. Sink conditions were maintained in all experiments, meaning the drug concentration in the acceptor compartment never exceeded 10% of its concentration in the donor compartment at any time according the recommendations proposed in [18].
# Samples from the acceptor compartment after permeation through the PDS membrane were analyzed by HPLC using a Shimadzu Prominence LC-20 AD system(Shimadzu Corporation, Kyoto, Japan) equipped with a PDA detector and a Luna® C-18 column (150 × 4.6 mm i.d., 5 μm particle size, 100 Å pore size). The column temperature was maintained at 40 °C. The mobile phase consisted of acetonitrile and water (containing 0.1% trifluoroacetic acid) in a 20:80 (v/v) ratio. An isocratic elution was performed at a flow rate of 1.0 mL·min^−1. The injection volume was 20 μL. The analytes were detected by UV at 373 nm, with a retention time of approximately 4.5 min. […]
# [4] = pH 7.4, comparison with literature ref 19
smiles,measurement,setting,value
"COc1ccc2c3c([nH]c2c1)C(C)=NCC3 [HML, Harmaline]",solubility at pH 2.0 relative to pH 7.4 (higher),[1]; 310.15 K,2.2 fold
same,solubility at 24 h,[1]; 293.15 K,59.2 ± 1.3 µM
same,solubility at 24 h,[1]; 295.15 K,65 ± 1.1 µM
same,solubility at 24 h,[1]; 298.15 K,75.3 ± 1.2 µM
same,solubility at 24 h,[1]; 303.15 K,93.2 ± 1.7 µM
same,solubility at 24 h,[1]; 308.15 K,113.9 ± 0.7 µM
same,solubility at 24 h,[1]; 310.15 K,130 ± 3.2 µM
same,solubility at 24 h,[1]; 313.15 K,145 ± 4.1 µM
same,solubility at pH 7.4 relative to reserpine (more soluble),[1]; [4],42 fold
same,solubility at pH 7.4 relative to vincamine (more soluble),[1]; [4],44 fold
same,logD,"[2]; 1-octanol (OctOH)/buffer pH 7.4, pH 7.4, OctOH/pH 7.4, 310.15 K",1.29
same,logD,"[2]; 1-octanol (OctOH)/buffer pH 7.4, pH 7.4, OctOH/pH 7.4, 313.15 K",1.34
same,decrease of distribution coefficient from OctOH/pH 7.4 to IPM/pH 7.4 system,[2]; 310.15 K,78 fold
same,DappHex/pH7.4 ·10^2,"[2]; Hex/pH 7.4, 293.15 K",1.178 ± 0.024
same,DappHex/pH7.4 ·10^2,"[2]; Hex/pH 7.4, 303.15 K",1.470 ± 0.037
same,DappHex/pH7.4 ·10^2,"[2]; Hex/pH 7.4, 308.15 K",1.718 ± 0.035
same,DappHex/pH7.4,"[2]; Hex/pH 7.4, 310.15 K, unscaled value in text",0.022
same,DappHex/pH7.4 ·10^2,"[2]; Hex/pH 7.4, 310.15 K",2.197 ± 0.044
same,DappHex/pH7.4 ·10^2,"[2]; Hex/pH 7.4, 313.15 K",2.483 ± 0.050
same,DappIPM/pH7.4,"[2]; IPM/pH 7.4, 310.15 K",0.25 and 0.250 ± 0.010
same,logD at 24 h,"[2]; OctOH (octanol)/buffer pH 7.4, pH 7.4, OctOH/pH 7.4, 293.15 K",0.973
same,logD at 24 h,"[2]; OctOH (octanol)/buffer pH 7.4, pH 7.4, OctOH/pH 7.4, 298.15 K",1.02
same,logD at 24 h,"[2]; OctOH (octanol)/buffer pH 7.4, pH 7.4, OctOH/pH 7.4, 303.15 K",1.07
same,logD at 24 h,"[2]; OctOH (octanol)/buffer pH 7.4, pH 7.4, OctOH/pH 7.4, 308.15 K",1.17
same,DappOctOH/pH7.4,"[2]; OctOH/pH 7.4, 293.15 K",9.399 ± 0.101
same,DappOctOH/pH7.4,"[2]; OctOH/pH 7.4, 298.15 K",10.376 ± 0.208
same,DappOctOH/pH7.4,"[2]; OctOH/pH 7.4, 303.15 K",11.653 ± 0.233
same,DappOctOH/pH7.4,"[2]; OctOH/pH 7.4, 308.15 K",14.632 ± 0.293
same,DappOctOH/pH7.4,"[2]; OctOH/pH 7.4, 310.15 K",19.492 and 19.49 and 19.492 ± 0.389
same,DappOctOH/pH7.4,"[2]; OctOH/pH 7.4, 313.15 K",22.138 ± 0.443
same,logPapp,[3]; PDS membrane,−6.78
same,steady state flux J,"[3]; PDS membrane, C0 2.62 × 10^−3 M",4.31 × 10^−7 µmol∙cm^−2∙s^−1
same,Papp at 5 h,"[3]; PDS membrane, read-out: permeability coefficient Papp",0.165 ×10⁻⁶ cm/s
same,"permeability coefficient for PDS, fold lower than for RC",[3],299 fold
